Experimental data as given in ChEMBL document CHEMBL1155608, “Malyngamides O and P from the sea hare Stylocheilus longicauda” (J Nat Prod, 2000).

Columns and labels:
Format in all cases: functional, cell-based
P388 = assay: Cytotoxicity against mouse P388 cells
A549 = assay: Cytotoxicity against human A549 cells
HT-29 = assay: Cytotoxicity against human HT29 cells

Measured: IC50

CCCCCCC[C@@H](C/C=C/CCC(=O)N(C)C/C(=C\Cl)C/C(=C\C(=O)OC)OC)OC [MALYNGAMIDE O]
2 µg/mL: all assays above
